Measured values reported in publication PMC6387968, “An in vitro ADME and in vivo Pharmacokinetic Study of Novel TB-Active Decoquinate Derivatives” (Frontiers in Pharmacology, 2019).

Legend:
[1] = in vitro; assay type: in vitro ADME; details: microsomes
Description: RMB041, -043, and -073 ([…]) prepared in DMSO were incubated separately with 530 μL mouse and human microsomes (0.4 mg/mL) at 37°C with the cofactor NADPH (1 mM). Compounds were assessed at 0 and 60 min. The reaction was stopped by the addition of ice-cold ACN containing IS (carbamazepine, 23.6 ng/mL). The samples were analyzed via LC-MS/MS using the instrumentation and conditions described above. The in vitro half-life, intrinsic clearance rate, and hepatic extraction ratio were predicted using results from this assay in the following equations ([Obach, 1999]). Metabolic stability was assessed as the compound’s depletion from a starting concentration of […] over 1 h in mouse and human microsomal fractions. The in vitro half-life can be predicted from this assay. The linear regression from a graph relating natural logarithmic percentage of the compound remaining versus the incubation time was used to calculate the half-life, CLint, and EH.

[2] = physchem; assay type: physicochemical; details: 22 °C, pH 7.4, aqueous buffer, kinetic from dmso stock
Description: Stock solutions of each compound prepared in DMSO (10 mM) were spiked in duplicate into phosphate buffer at pH 7.4 (final concentration = 200 μM). Calibration samples were prepared by spiking individual compounds in DMSO at 11, 100, and 220 μM. These were used to generate a calibration curve to determine compound concentrations in the test samples. The samples were agitated for 2 h using a plate shaker (500 rpm, 22°C). Approximately 150 μL of the resulting supernatant was transferred to a 96-well analysis plate and the calibration and test samples were analyzed via HPLC with a diode array detector (Agilent 1200 Rapid Resolution HPLC, Agilent Technologies, Santa Clara, CA, United States) comprising a reverse-phase Gemini-C18 analytical column (5 μm, 50 mm × 2 mm; Phenomenex, Torrance, CA, United States). Mobile phases comprised 0.1% FA in water (A) and 0.1% FA in ACN (B). The run lasted 3 min and a gradient elution method was used (Table 1).

[3] = tested on: Chinese hamster ovarian (CHO) cell-lines; details: cited from earlier work
[4] = assay type: in vitro ADME; details: pH 7.4
Description: The permeability of the compounds was assessed via a PAMPA using a 96-well multiscreen filter plate ([…]). The filter plate was coated with 5% hexadecane in hexane and was allowed to dry before starting the assay. Lucifer yellow was added to the apical side of the filter plate in each well containing test compound solutions prepared in DMSO. A solution of each compound was diluted into phosphate buffer at pH 7.4 (final concentration = 1 μg/mL) and was added to the apical portion of the donor plate. The acceptor plate was filled with blank buffer (pH 7.4). The plates were slotted into each other and agitated at 80 rpm for 4 h at 22°C. Samples from donor and theoretical equilibrium wells were matrix-matched with blank phosphate buffer at pH 7.4. Samples were treated with ACN containing IS (carbamazepine, 23.6 ng/mL) and were submitted for LC-MS/MS analysis on an Agilent Rapid Resolution HPLC and AB Sciex 4500 MS. […] [Wohnsland and Faller, 2001]; [Jung et al., 2006]). where, VA is the volume of the acceptor compartment (0.25 cm^3), VD is the volume of the donor compartment (0.15 cm^3), A is the accessible filter area (0.024 cm^2), and t is the incubation time (s). The peak areas of the samples were used to determine the Papp of each compound using Eq. 3. Papp=C × -ln(1-Acceptor […]/Donor […])

[5] = in vitro; assay type: in vitro ADME
Description: Compound solutions prepared in DMSO were diluted in phosphate buffer (final concentration = 1 μg/mL), and were spiked into human plasma and microsomal fractions (total volume = 1 mL). Aliquots were then transferred in duplicate to: (i) a final concentration plate that was immediately quenched with 23.6 ng/mL internal standard (IS, carbamazepine) in ACN, (ii) a degradation control, which was placed in a water bath at 37°C for 4 h, and (iii) ultracentrifuge tubes, which were centrifuged for 4 h at 37°C and 30 000 × g. All reactions were stopped by the addition of ACN containing 23.6 ng/mL carbamazepine. The samples were subjected to liquid chromatography-tandem mass spectrometry (LC-MS/MS) analysis on an AB Sciex 4000 Q Trap hybrid triple quadrupole linear ion-trap MS (AB Sciex, Framingham, MA, United States) coupled to an Agilent 1200 HPLC (Agilent) with a reverse-phase Gemini-C18 analytical column (5 μm, 50 mm × 2 mm; Phenomenex) at 35°C. Mobile phases comprised 0.1% FA in water, and 0.1% FA in ACN. The flow rate was 600 μL/min with a run time of 6 min. A gradient elution was employed (Table 2).

[6] = tested on: Mtb H37Rv; parameters: method as in Beteck et al., 2018; details: in vitro, Mtb H37Rv; ref Beteck et al., 2018; cited from earlier work
[7] = human, plasma, Plasma protein (fraction unbound)
[8] = human, plasma, percentage plasma protein binding

Compound | half-life at 0.1 M [1] [h] | microsomal CLint at 0.1 M [1] [µL/min/mg] | solubility kinetic at 2 h [2] [µM] | IC50 [3] [µM] | PAMPA Log Papp [4] | fraction unbound at 4 h, 1 μg/mL ([5]; human, microsomes) | fraction unbound at 4 h, 1 μg/mL [5, 7] | fraction unbound at 4 h, 1 μg/mL [5, 8] | fraction unbound at 4 h, 1 μg/mL ([5]; microsomes) | 90% minimum inhibitory concentration (MIC90) [6] [µM]
CCCCCCCCCCOc1cc2c(=O)c(C(=O)NCCOCCO)cn(CCO)c2cc1OCC [RMB073] | > 2.5 | < 20 | > 150 | 33.9 | -4.5 | 0.114 | 0.16 | 0.156 | 0.11 | 1.88
CCCCCCCCCCOc1cc2c(=O)c(C(=O)NCCOCCO)cn(CC)c2cc1OCC [RMB041] | > 2.5 | < 20 | > 150 | 20 | -4.8 | 0.053 | 0.1 | 0.104 | 0.06 | 1.61
CCCCCCCCCCOc1cc2c(=O)c(C(=O)NCCNCCO)cn(CC)c2cc1OCC [RMB043] | < 1.67 | < 110 | > 150 | 80 | -4.8 | 0.053 | 0.23 | 0.221 | 0.06 | 4.18
